The source made the active and inactive calls. Rule as the data show it, for most assays here: actives have a measured EC50 and inactives only a lower limit.
Columns and labels:
H9c2 = experiment: cells; format: functional, cell-based; conditions: Rattus norvegicus, H9c2, Myocardium;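 also: confirmatory concentration-response retest of ultra-high-throughput screening hits for modulation of myocardial damage; cell death induced by hydrogen peroxide oxidative stress; compound pretreatment for 60 min then peroxide exposure for 2 h; potency is for protecting the cells against peroxide damage rather than for killing them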
[1] = NIH-3T3 fibroblast cytotoxicity, dose response, cytotoxicity control, cell-based, fluorescence, Alamar Blue, secondary assay (AID 2327); format: functional;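 also: NIH-3T3 mouse fibroblasts cultured with fluconazole at 8 µg/mL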
[2] = tested on: Streptococcus sp. 'group A'; experiment: Streptococcus pyogenes SK(-)GAS viability under kanamycin – luminescence, BacTiterGlo, confirmation, counter-screen for streptokinase expression inhibitor project, dose response (AID 1900); format: functional, organism-based
Streptokinase A = molecular target: T1, Streptokinase A (Streptococcus pyogenes serotype M1, UniProt P10520); experiment: viability-normalized secreted streptokinase activity reduction – plasminogen activation absorbance, OD405, dose response (AID 1914); format: functional, Streptococcus pyogenes M1 GAS;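 also: secreted streptokinase activity via plasminogen activation per viability signal from cell pellet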
T1 sequence (P10520 whole entry): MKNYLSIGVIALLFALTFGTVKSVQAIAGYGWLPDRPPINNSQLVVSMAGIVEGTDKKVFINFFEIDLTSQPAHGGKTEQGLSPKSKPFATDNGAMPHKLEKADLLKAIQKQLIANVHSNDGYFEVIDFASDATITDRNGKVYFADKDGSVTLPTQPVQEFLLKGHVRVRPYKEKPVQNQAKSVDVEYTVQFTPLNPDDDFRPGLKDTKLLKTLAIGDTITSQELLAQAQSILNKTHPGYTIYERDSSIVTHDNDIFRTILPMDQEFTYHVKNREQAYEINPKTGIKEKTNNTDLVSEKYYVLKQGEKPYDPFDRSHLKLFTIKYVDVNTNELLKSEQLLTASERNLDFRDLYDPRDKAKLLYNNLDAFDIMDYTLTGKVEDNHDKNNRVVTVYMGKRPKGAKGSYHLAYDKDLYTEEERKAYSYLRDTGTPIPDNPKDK

[3] = fluconazole-exposed Candida albicans growth modulators – fluorescence, retest, confirmation (AID 2467); format: functional, cell-based
Streptococcus = experiment: GAS UMAA2166 growth inhibition – luminescence, BacTiterGlo, counter-screen for streptokinase expression inhibitor project, dose response (AID 1915); format: functional, organism-based;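 also: potency for reduction of bacterial viability or growth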
[4] = molecular target: T2, Ubiquitin-conjugating enzyme E2 N (Homo sapiens, UniProt P61088); format: functional;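 also: Dose-response confirmation in a TR-FRET assay detecting UBC13-driven polyubiquitin chain formation, inhibition measured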
T2 sequence (P61088 whole entry): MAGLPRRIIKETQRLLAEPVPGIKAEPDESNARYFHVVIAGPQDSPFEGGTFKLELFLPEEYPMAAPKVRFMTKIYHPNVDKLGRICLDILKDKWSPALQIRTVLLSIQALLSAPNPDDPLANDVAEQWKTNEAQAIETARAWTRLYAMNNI

cells [5] = format: functional, cell-based
cells [6] = format: functional, cell-based; remark: listed apart in the source
[7] = molecular target: T3, RNA-binding protein pos-1 (Caenorhabditis elegans, UniProt G5EF15); experiment: disruptors of C. elegans POS-1 RNA interaction – biochemical, fluorescence polarization, dose response (AID 1964);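 also: purified POS-1 fused to maltose binding protein made in E. coli; potency of compounds blocking POS-1 binding to fluorescent RNA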
T3 sequence (G5EF15 whole entry): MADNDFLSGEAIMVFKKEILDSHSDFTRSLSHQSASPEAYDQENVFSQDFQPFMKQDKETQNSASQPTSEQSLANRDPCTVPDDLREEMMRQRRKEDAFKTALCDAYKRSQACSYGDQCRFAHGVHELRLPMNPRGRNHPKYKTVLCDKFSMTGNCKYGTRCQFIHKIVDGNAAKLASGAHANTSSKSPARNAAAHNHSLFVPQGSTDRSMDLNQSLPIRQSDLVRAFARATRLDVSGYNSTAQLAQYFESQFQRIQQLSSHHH

[8] = molecular target: T4, Zinc finger protein mex-5 (Caenorhabditis elegans, UniProt Q9XUB2); experiment: potency of MEX-5 RNA-binding blockers – biochemical, C. elegans, fluorescence polarization, dose response (AID 1960)
T4 sequence (Q9XUB2 whole entry): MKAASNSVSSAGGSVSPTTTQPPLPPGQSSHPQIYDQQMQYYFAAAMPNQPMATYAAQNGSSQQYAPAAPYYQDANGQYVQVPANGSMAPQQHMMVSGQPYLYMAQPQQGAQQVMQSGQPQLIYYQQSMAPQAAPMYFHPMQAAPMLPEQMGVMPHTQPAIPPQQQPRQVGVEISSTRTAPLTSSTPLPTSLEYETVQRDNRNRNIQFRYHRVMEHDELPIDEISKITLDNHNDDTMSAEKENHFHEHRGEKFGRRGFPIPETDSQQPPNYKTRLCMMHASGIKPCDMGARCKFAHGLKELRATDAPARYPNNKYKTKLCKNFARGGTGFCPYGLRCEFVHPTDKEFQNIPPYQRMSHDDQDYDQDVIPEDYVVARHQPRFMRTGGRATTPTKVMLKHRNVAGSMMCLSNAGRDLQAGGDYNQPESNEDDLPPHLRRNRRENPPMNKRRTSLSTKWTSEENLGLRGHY

Genome polyprotein = Genome polyprotein (dengue virus type 2, UniProt P29990); experiment: flavivirus cap methylation enzyme inhibition – biochemical, confirmation dose response, primary screen (AID 588689); format: functional
Genome polyprotein, sequence (P29990 2492-3391 limits assumed): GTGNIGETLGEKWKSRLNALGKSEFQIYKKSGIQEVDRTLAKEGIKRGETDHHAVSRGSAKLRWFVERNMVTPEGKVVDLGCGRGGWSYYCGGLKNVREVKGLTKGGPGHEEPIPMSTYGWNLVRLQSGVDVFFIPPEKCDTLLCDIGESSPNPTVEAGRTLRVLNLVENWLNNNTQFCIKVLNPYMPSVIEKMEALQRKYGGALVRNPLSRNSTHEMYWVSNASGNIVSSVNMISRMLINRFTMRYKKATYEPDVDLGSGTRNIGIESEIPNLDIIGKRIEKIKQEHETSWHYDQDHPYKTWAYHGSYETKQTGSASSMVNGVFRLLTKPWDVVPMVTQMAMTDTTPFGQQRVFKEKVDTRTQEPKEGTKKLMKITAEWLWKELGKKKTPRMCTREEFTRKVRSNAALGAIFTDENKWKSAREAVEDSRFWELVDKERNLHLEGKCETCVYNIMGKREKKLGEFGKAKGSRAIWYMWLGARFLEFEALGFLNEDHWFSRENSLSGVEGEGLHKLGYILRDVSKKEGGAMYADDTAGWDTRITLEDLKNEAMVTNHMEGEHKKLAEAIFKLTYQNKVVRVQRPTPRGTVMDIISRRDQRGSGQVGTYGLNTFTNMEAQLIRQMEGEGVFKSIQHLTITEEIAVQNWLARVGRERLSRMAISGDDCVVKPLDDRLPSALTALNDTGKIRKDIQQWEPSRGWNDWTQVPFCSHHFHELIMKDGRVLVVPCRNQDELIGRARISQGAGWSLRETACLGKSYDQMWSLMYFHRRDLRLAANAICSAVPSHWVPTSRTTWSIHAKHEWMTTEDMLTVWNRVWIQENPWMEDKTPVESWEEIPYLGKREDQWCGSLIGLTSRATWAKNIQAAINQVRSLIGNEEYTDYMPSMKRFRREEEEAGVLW

[9] = Trypanosoma cruzi growth suppression in host cells – NIH3T3 host cells, beta-gal luminescence, confirmation (AID 2044); format: functional, cell-based;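 also: intracellular parasites grown in NIH/3T3 mouse fibroblasts as host cells; luminescent beta-galactosidase reporter signal from transgenic T. cruzi replicating inside host cells; inhibitors lower the luminescence signal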
[10] = NIH3T3 cell viability loss – ATP luminescence, mouse fibroblasts, counter-screen, dose response (AID 2010); format: functional, cell-based;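 also: cells exposed to compound for about 90 hours before reading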
Nonstructural protein 1 = Nonstructural protein 1 (Influenza A virus, UniProt Q194T2); format: functional, Influenza A virus (A/California/07/2009(H1N1))
Nonstructural protein 1, sequence (Q194T2 whole entry): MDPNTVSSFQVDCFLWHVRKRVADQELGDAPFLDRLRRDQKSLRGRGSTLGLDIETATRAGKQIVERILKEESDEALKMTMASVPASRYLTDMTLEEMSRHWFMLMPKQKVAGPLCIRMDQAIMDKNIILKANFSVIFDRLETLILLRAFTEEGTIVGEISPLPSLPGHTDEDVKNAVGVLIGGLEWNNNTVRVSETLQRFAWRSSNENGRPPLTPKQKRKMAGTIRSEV

[11] = molecular target: Heat shock protein HSP 90-alpha (Homo sapiens, UniProt P07900); format: functional, organism-based
[12] = molecular target: T5, Heat shock factor protein 1 (Mus musculus, UniProt P38532); experiment: decrease of HSF1-responsive luciferase luminescence – cell-based, NIH3T3, dose retest, confirmation (AID 2382); format: functional;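 also: NIH3T3 fibroblasts with HSF1-driven luciferase reporter stressed by proteasome inhibitor MG132; luminescence from HSF1-driven luciferase expression after 8 hours of MG132 stress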
T5 sequence (P38532 whole entry): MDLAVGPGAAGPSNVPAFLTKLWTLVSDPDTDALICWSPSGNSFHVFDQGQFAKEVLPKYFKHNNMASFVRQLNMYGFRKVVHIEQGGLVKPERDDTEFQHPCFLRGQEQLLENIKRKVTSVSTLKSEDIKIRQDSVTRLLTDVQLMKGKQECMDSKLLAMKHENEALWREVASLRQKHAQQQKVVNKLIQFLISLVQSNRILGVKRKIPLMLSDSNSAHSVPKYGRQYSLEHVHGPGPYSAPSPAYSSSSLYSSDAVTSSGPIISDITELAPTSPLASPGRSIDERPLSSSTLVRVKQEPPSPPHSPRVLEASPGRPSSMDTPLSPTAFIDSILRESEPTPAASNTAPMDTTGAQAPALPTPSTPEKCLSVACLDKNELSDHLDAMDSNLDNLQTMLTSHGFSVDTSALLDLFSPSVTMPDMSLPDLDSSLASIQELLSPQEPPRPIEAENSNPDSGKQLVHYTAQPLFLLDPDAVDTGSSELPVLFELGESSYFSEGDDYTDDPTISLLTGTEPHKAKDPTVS

[13] = molecular target: DNA dC->dU-editing enzyme APOBEC-3G (Homo sapiens, UniProt Q9HC16); experiment: Dose Response confirmation of small molecule APOBEC3G DNA Deaminase Inhibitors via a fluorescence-based single-stranded DNA deaminase assay. [Related pubchem assays (depositor defined):AID493012, AID493028]; format: functional
DNA dC->dU-editing enzyme APOBEC-3G, sequence (Q9HC16 whole entry, the tested form may be a part): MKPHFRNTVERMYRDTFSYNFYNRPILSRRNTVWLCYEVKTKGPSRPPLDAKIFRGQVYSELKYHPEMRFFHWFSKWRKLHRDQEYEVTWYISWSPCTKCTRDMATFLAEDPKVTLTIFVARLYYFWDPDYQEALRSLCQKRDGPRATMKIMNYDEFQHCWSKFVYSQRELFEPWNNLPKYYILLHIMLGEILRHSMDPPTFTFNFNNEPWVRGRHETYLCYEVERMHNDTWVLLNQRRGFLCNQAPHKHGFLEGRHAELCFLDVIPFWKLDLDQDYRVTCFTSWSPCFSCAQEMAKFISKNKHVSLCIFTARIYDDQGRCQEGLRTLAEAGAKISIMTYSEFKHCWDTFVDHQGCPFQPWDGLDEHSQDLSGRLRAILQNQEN

[14] = blockers of HIV-1 ZM109 envelope-driven cell-cell fusion – HeLa effector, CEM target cells, luciferase, cherry-pick, dose response (AID 652058); format: functional, cell-based;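 also: luciferase signal from HIV-1 Env mediated cell-cell fusion of effector and target cells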
[15] = P. falciparum Dd2 growth inhibitors, dose response, SYBR Green, cherry-picked samples (AID 1159567); format: functional, cell-based
[16] = blockers of HIV-1 envelope-mediated cell-cell fusion – cherry-pick, dose response (AID 652057); format: functional, cell-based
[17] = off-target signal loss in HeLa-CEM21 co-culture – HeLa F-luc CTL cells, cherry-picked, counter-screen for HIV-1 Env fusion inhibitor project, dose response (AID 652040); format: functional, cell-based;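 also: potency for signal decrease marking cytotoxic or nonspecific inhibition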
[18] = HIV-1 AD8 envelope cell-cell fusion blockers – cherry-pick, dose response (AID 652062); format: functional, cell-based;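 also: luciferase signal from cell-cell fusion driven by HIV-1 clade B AD8 Env; potency is for inhibitors of fusion seen as a drop in luminescence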

With `CN(C(=O)Cn1nc(C(=O)O)c2ccccc2c1=O)C1(C#N)CCCCC1` the IC50 (H9c2) was > 79 µM (inactive).

With `O=C(NNC(=S)NC(=O)c1ccccc1)c1ccc([N+](=O)[O-])cc1` the EC50 [1] was > 160 µM (inactive), the EC50 [2] was 4.22 µM (active) and the EC50 (Streptokinase A) was > 150 µM (not active). For the same compound, the EC50 [3] was 1.46 µM (active) and the EC50 (Streptococcus) was 15.5 µM (active).

For `NC(=O)c1nsc(C(=O)N(c2cccc(F)c2)C(C(=O)NCC2CCCO2)c2c[nH]c3ccccc23)c1N` (configuration not stated), the IC50 [4] was > 20 µM (inactive).

In the case of `O=C(N/N=C/c1cccnc1)c1ccc(NC(=O)c2ccc(Cl)cc2)cc1`, the EC50 (cells [5]) is reported as > 350 µM (not active) and the EC50 (cells [6]) is reported as > 350 µM (not active).

For `CC1(OC(=O)c2ccco2)C(=O)C=C2C=C(C3CC3)OC=C2C1=O` (configuration not stated), the EC50 [7] was 20.2 µM (active), the EC50 [8] was 18.3 µM (active) and the IC50 (Genome polyprotein) was > 100 µM (active).

For `OCc1ccnc2c(O)cccc12`, the EC50 [1] was 79.8 µM (active), the EC50 [3] was > 38 µM (not active) and the EC50 [9] was 3.36 µM (active). For the same compound, the EC50 [10] was > 30 µM (not active) and the IC50 (Nonstructural protein 1) was 10.2 µM (active).

In the case of `O=C(O)c1cccc2c1Cc1cc(Cl)ccc1-2`, the AC50 [11] is reported as 0.723 µM (active).

With `COc1ccc(/C=N/n2c(S)nnc2-c2cc(C)[nH]n2)cc1OC` the EC50 [12] was > 195 µM (not active) and the IC50 [13] was 8.3 µM (active).

For `O=C(CCc1nc(O)c2ccccc2n1)Nc1ccc(N2CCCCC2)cc1`, the IC50 (H9c2) was > 79 µM (inactive).

In the case of `CCCCC(=O)Nc1ccc(NC(=O)CC)cc1OC`, the EC50 (cells [5]) is reported as > 350 µM (not active) and the EC50 (cells [6]) is reported as > 350 µM (not active).

With `Cc1cc(NC(=O)CSc2nc3c(c(=O)n2-c2ccc(Cl)cc2)SCC3)no1` the EC50 (cells [5]) was > 350 µM (not active) and the EC50 (cells [6]) was > 350 µM (not active).

In the case of `CCC[C@@H](CN1CCC[C@H]1CN1C(N)=NC[C@@H]1Cc1ccccc1)N1C[C@@H]([C@H](C)CC)N(CCc2ccc(Cl)c(Cl)c2)C1=N`, the IC50 [4] is reported as > 20 µM (inactive).

For `Cc1noc(NC(=O)c2ccc(Cl)c(Cl)c2)c1Cl`, the EC50 [1] was > 150 µM (inactive) and the EC50 [3] was 0.591 µM (active).

In the case of `O=C(C[C@@H]1C=C[C@@H](NC(=O)c2ccccc2)[C@H](CO)O1)NCc1ccc(Oc2ccccc2)cc1`, the AC50 [14] is reported as 38.2 µM (active).

With `O=C(C1CCCC1)N1CC[C@@H]2[C@H]1c1cc(C3=CCCCC3)ccc1N[C@@H]2CO` the AC50 [15] was 2.76 µM (active).

With `Cc1ccc(Sc2ncccc2C(=O)NCc2cc([N+](=O)[O-])ccc2O)c(C)c1` the EC50 [1] was > 150 µM (inactive) and the EC50 [3] was 1.73 µM (active).

With `COc1ccc(N2C(=O)NC(=O)/C(=C(/C)NCCCn3ccnc3)C2=O)cc1` the AC50 [16] was 2.49 µM (active), the AC50 [14] was 4.33 µM (active) and the AC50 [17] was 19.5 µM (active). For the same compound, the AC50 [18] was 6.76 µM (active).

With `O=C(COC(=O)c1ccc([N+](=O)[O-])o1)Nc1cccc(S(=O)(=O)N2CCCCC2)c1` the IC50 (H9c2) was > 79 µM (inactive).
